How the values were obtained:
conchae of hairless mice = test: Vasodilating effect on the conchae of hairless mice, visual evaluation of red spots (Examples 2 and 4); assay type: in vivo, hairless mouse (HR-1, female); conditions: for Vasodilating effect, 1 wt %: 1 wt % in liquid paraffin; for Vasodilating effect, 1 wt % / Vasodilating effect, 5 wt %: symbols not defined in the patent; for Vasodilating effect, 5 wt %: 5 wt % in liquid paraffin; for Activity compared with capsiate: statement in the description; for Remarks: vasodilating effect: in liquid paraffin
Excerpt: The vasodilating effects of capsinoids (a mixed product prepared by the method stated in Reference Example (5) was employed; see below) and capsaicin was compared using the conchae of hairless mice.
Test Method: A sample was applied on the right ear and a control was applied on the left ear of a hairless mouse (HR-1, female), and the development of red spots was visually evaluated.
Sample: (1) Capsinoids (1 weight percent and 5 weight percent dissolved in liquid paraffin)
(2) Capsaicin (1 weight percent and 5 weight percent dispersed in liquid paraffin)
(§1) In the same manner as in Example 2, the vasodilating effects of various capsinoid compounds were compared using the conchae of hairless mice. The samples were dissolved in liquid paraffin.

[1] = Dissolution of the sample in liquid paraffin (Example 4); assay type: physicochemical
Procedure: as §1

Row | SMILES | Vasodilating effect, 5 wt % (conchae of hairless mice) | Activity compared with capsiate (conchae of hairless mice) | Remarks: vasodilating effect (conchae of hairless mice) | further results
1 | COc1cc(COC(=O)CCCC/C=C/C(C)C)ccc1O [Capsiate, 4-hydoxy-3-methoxybenzyl (E)-8-methyl-6-nonenoate] | ◯ |  |  | Vasodilating effect, 1 wt % (conchae of hairless mice): Δ; Remarks: weak red spots still caused after (conchae of hairless mice; 5 weight percent application): caused even after 90 minutes
2 | CCC(C)CCCCC(=O)OCc1ccc(O)c(OC)c1 (centres unmarked) [Vanillyl 6-methyloctanoate, vanillyl 6-methyloctanoate] | ◯ | about the same degree of activity as capsiate |  | Remarks: disappearance of the vasodilating effect (conchae of hairless mice; 5 weight percent application): disappeared in about two hour
3 | CCCCCCCCC(=O)OCc1ccc(O)c(OC)c1 [vanillyl nonanoate, 4-hydroxy-3-methyloxybenzyl nonanoate] |  | about the same degree of activity as capsiate |  | 
4 | COc1cc(COC(=O)CCCCCC(C)C)ccc1O [Nordihydrocapsiate, nordihydrocapsiate] | ◯ |  |  | Vasodilating effect, 1 wt % (conchae of hairless mice): Δ; Remarks: weak red spots still caused after (conchae of hairless mice; 5 weight percent application): caused even after 90 minutes
5 | COc1cc(COC(=O)CCCCCCC(C)C)ccc1O [Dihydrocapsiate, 4-hydroxy-3-methoxybenzyl 8-methylnonanoate] | ◯ |  |  | Vasodilating effect, 1 wt % (conchae of hairless mice): Δ; Remarks: weak red spots still caused after (conchae of hairless mice; 5 weight percent application): caused even after 90 minutes
6 | COc1cc(COC(=O)CCCCCCCC(C)C)ccc1O [Vanillyl 9-methyldecanoate, vanillyl 9-methyldecanoate] | ◯ | about the same degree of activity as capsiate |  | Remarks: disappearance of the vasodilating effect (conchae of hairless mice; 5 weight percent application): disappeared in about two hour
7 | COc1cc(CO)ccc1O [Vanillyl alcohol, reference compound] |  |  | No vasodilating effect | 
8 | COc1cc(CNC(=O)CCCC/C=C/C(C)C)ccc1O [Capsaicin, capsaicin, reference compound] | ◯ |  |  | Remarks: red spots still caused after (conchae of hairless mice; 1 weight percent application): even after two hours; Persistence of red spots (conchae of hairless mice; 1 weight percent dispersed in liquid paraffin): retained their original form even after two hours; Development of red spots (visual evaluation) (conchae of hairless mice; 1 weight percent in liquid paraffin, applied on ear): red spots were observed; Vasodilating effect, 1 wt % (conchae of hairless mice): ◯; Development of red spots (visual evaluation) (conchae of hairless mice; 5 weight percent in liquid paraffin, 30 minutes after application): clear red spots were observed
9 | CCCCCCCCCCCCCCC(=O)OCc1ccc(O)c(OC)c1 [Vanillyl pentadecanoate] |  |  |  | Remarks: dissolution in liquid paraffin [1]: Not dissolved
10 | CCC(C)CCCCCC(=O)OCc1ccc(O)c(OC)c1 (centres unmarked) [Vanillyl 7-methylnonanoate, vanillyl 7-methylnonanoate] | ◯ | about the same degree of activity as capsiate |  | Remarks: disappearance of the vasodilating effect (conchae of hairless mice; 5 weight percent application): disappeared in about two hour
11 | CCCCCCCC(=O)OCc1ccc(O)c(OC)c1 [Vanillyl octanoate, 4-hycroxy-3-methoxybenzyl octanoate] | ◯ | about the same degree of activity as capsiate |  | Remarks: disappearance of the vasodilating effect (conchae of hairless mice; concentration not given): Vasodilating effect disappeared in about one hour
12 | CCCCCCCCCCCC(=O)OCc1ccc(O)c(OC)c1 [Vanillyl dodecanoate] |  |  | No vasodilating effect | 
13 | CCCCCCCCCCC(=O)OCc1ccc(O)c(OC)c1 [Vanillyl undecanoate, vanillyl undecanoate] | ◯ | about the same degree of activity as capsiate |  | Remarks: disappearance of the vasodilating effect (conchae of hairless mice; concentration not given): the effect disappeared more quickly than for C10.
14 | CCCCCCCCCCCCCCCCCC(=O)OCc1ccc(O)c(OC)c1 [Vanillyl octadecanoate] |  |  | No vasodilating effect | 
15 | CCCCCCCCCC(=O)OCc1ccc(O)c(OC)c1 [Vanillyl decanoate, 4-hydroxy-3-methoxybenzyl decanoate (caprate)] | ◯ | about the same degree of activity as capsiate |  | Remarks: disappearance of the vasodilating effect (conchae of hairless mice; concentration not given): Vasodilating effect disappeared in about one hour
16 | CC/C=C\C/C=C\C/C=C\CCCCCCCC(=O)OCc1ccc(O)c(OC)c1 [Vanillyl linolenate] |  |  | No vasodilating effect | 
17 | CCCCCCCC/C=C\CCCCCCCC(=O)OCc1ccc(O)c(OC)c1 [Vanillyl oleate] |  |  | No vasodilating effect | 
18 | CCC(C)CCCCCCC(=O)OCc1ccc(O)c(OC)c1 (centres unmarked) [Vanillyl 8-methyldecanoate, vanillyl 8-methyldecanoate] | ◯ | about the same degree of activity as capsiate |  | Remarks: disappearance of the vasodilating effect (conchae of hairless mice; 5 weight percent application): disappeared in about two hour
19 | CCCCCCCCCCCCC(=O)OCc1ccc(O)c(OC)c1 [Vanillyl tridecanoate] |  |  | No vasodilating effect | 

Reference: patent US9399030B2, “Topically applied circulation enhancing agent and skin and hair cosmetic and bath agent containing the same” (AJINOMOTO CO., INC., priority 2005, dated 2016)
